Laboratory results: BindingDB's records for doi:10.1016/s0960-894x(98)00583-6 (Novartis Horsham Research Center, 1999)

What follows are compounds tested against cGMP-inhibited 3',5'-cyclic phosphodiesterase 3A/3B (Homo sapiens, UniProt Q13370+Q14432) (assay: Inhibition of phosphodiesterase (PDE) 3).
Sequence of cGMP-inhibited 3',5'-cyclic phosphodiesterase 3A/3B (Q14432 whole entry): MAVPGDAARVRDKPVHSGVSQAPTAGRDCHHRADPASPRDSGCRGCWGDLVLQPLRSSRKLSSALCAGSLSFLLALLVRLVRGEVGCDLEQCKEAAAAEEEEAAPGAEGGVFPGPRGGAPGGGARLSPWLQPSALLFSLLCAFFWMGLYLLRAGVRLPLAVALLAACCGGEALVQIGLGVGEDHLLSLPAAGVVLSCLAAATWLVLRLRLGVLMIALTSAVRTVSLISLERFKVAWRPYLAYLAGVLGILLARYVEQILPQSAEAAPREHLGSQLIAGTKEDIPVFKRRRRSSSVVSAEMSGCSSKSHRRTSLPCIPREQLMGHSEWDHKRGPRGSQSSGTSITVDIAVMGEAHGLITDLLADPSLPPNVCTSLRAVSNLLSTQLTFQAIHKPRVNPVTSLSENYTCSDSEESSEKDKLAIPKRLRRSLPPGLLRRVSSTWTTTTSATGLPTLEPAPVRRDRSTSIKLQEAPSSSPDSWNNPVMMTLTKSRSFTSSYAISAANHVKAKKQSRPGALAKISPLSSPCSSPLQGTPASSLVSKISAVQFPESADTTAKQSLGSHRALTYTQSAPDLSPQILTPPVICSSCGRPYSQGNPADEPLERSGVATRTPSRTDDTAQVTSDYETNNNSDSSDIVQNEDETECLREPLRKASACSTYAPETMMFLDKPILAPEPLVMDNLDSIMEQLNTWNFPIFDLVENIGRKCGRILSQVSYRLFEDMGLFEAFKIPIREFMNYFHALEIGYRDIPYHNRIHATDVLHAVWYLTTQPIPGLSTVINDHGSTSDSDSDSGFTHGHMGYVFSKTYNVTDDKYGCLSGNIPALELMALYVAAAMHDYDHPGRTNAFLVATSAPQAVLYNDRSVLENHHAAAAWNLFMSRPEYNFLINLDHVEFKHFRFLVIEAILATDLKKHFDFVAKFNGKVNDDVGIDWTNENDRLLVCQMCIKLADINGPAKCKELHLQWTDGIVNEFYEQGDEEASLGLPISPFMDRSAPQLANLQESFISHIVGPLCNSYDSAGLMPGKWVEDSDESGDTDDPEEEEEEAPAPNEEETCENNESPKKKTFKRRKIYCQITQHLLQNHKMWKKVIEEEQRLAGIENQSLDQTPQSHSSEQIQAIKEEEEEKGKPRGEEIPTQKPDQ
Sequence of cGMP-inhibited 3',5'-cyclic phosphodiesterase 3A/3B (Q13370 whole entry): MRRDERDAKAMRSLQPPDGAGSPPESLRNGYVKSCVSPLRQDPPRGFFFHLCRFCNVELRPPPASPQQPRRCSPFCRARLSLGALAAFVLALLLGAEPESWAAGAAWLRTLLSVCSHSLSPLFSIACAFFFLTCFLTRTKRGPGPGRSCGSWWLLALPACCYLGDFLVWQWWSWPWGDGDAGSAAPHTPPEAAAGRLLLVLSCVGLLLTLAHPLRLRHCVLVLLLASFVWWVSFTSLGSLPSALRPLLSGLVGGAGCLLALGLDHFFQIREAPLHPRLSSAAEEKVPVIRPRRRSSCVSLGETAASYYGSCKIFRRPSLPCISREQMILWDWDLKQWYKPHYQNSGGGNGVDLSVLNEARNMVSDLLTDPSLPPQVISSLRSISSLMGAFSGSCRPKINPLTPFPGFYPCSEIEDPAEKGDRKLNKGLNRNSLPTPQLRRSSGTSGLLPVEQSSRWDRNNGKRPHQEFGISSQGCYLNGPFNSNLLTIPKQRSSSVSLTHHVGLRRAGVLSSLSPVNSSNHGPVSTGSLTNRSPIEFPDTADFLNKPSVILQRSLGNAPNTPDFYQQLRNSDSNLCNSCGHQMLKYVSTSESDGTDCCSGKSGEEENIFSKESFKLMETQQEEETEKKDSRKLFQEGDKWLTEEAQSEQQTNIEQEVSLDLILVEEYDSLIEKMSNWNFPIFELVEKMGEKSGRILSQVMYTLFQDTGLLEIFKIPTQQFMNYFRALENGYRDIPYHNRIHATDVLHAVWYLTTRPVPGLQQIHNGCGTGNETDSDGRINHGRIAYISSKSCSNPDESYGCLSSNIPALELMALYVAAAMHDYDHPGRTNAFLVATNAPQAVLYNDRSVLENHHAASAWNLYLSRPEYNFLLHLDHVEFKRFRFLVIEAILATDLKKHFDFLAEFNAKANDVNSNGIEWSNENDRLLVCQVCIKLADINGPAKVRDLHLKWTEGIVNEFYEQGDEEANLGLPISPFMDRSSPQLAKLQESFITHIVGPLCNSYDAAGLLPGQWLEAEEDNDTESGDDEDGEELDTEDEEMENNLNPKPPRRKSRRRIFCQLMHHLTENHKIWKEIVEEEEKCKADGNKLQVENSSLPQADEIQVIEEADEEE

Row | IC50 | SMILES
1 | > 100 µM | COc1ccc([C@@H]2CNC(=O)C2)cc1OC1CCCC1 (racemic) [Adeo]
2 | > 100 µM | COc1cccc(COc2cccc(N3CC(c4ccc(OC)c(OC5CCCC5)c4)CC3=O)c2)c1 (centres undefined)
3 | > 100 µM | COc1cccc(COc2cc(C(=O)NN(C)C)cc(N3CC(c4ccc(OC)c(OC5CCCC5)c4)CC3=O)c2)c1 (centres undefined)
4 | > 100 µM | COc1cccc(COc2cc(C(=O)O)cc(N3CC(c4ccc(OC)c(OC5CCCC5)c4)CC3=O)c2)c1 (centres undefined)
